Assays:
[1] = tested on: NCIH929.1 cells; assay: NCIH929.1 cell viability assay (CellTiter-Glo, GI50); format: cell-based; conditions: 96 hr
[2] = Plasma PK and interconversion in monkeys; format: in vivo; conditions: monkey, Compound 1 60 μg/kg or 100 μg/kg PO, dose normalized to 1 mg/kg
Procedure: (§1) Compound 1 was administered to a rat at a concentration of 30 mg/kg PO and monkeys at a concentration of either 60 μg/kg or 100 μg/kg PO. At the indicated timepoints shown in FIG. 25A and FIG. 25B, plasma samples were collected and the Cmax, half-life, and AUC0-inf were determined for both Compound 1 and a metabolite of Compound 1, Compound 14. The percent of Compound 14 was also determined (Table 13). PK values dose normalized to 1 mg/kg. FIG. 25A is a graph measuring the concentration of Compound 1 or Compound 14 over the course of 24 hours in monkeys administered 100 μg/kg or 60 μg/kg of Compound 1. FIG. 25B is a graph measuring the concentration of Compound 1 or Compound 14 over the course of 24 hours in a rat administered 30 mg/kg of Compound 1.

[3] = Plasma PK and interconversion in rat; format: in vivo; conditions: Compound 1 30 mg/kg PO
Procedure: as §1

[4] = tested on: RPMI-8226 multiple myeloma tumors; conditions: Compound 1 10 μg/kg PO daily, Dexamethasone 5000 μg/kg IV once a week, Combination
Procedure: A xenograft study was conducted in female CB17 SCID mice bearing RPMI-8226 multiple myeloma tumors. Female SCID mice were inoculated subcutaneously in the right flank with 10×10^6 tumors cells in 0.2 mL of PBS supplemented with matrigel (PBS:matrigel=1:1). Tumor volume was measured twice weekly in two dimensions using calipers, and volume was calculated using the formula: (w2×l)/2=mm^3, assuming 1 mg is equivalent to 1 mm^3 of tumor volume. […] Treatment began on Day 0 with established subcutaneous RPMI-8226 tumors with a mean tumor volume (MTV) of 130 mm^3.
All agents were administered to mice bearing RPMI-8226 tumors on day 0 and dosed until an individual moue tumor volume reached or exceeded 1000 mm^3, at which point the mouse was removed from the study and dosing stopped. […] Dexamethasone was dosed IV once a week at 5000 μg/kg and formulated in saline. […] Body weight and MTV were measured on a 2× weekly schedule. The study end point was reaching a TV greater than 1000 mm^3, at which point any mouse with a TV reaching this cut off TV was removed from the study. […] The survival analysis used was Logrank (Mantel-Cox test). Data are expressed as MTV±SEM.

[5] = tested on: TMD8 DLBCL tumors; conditions: Compound 1 50 μg/kg, Ibrutinib 12500 μg/kg, Combination of both; PO daily
Procedure: A xenograft study was conducted in female CB17 SCID mice bearing TMD8 DLBCL tumors. Female SCID mice were inoculated subcutaneously in the right flank with 5×10^6 tumors cells in 0.2 mL of PBS supplemented with matrigel (PBS:matrigel=1:1). Tumor volume was measured twice weekly in two dimensions using calipers, and volume was calculated using the formula: (w2×l)/2=mm^3, assuming 1 mg is equivalent to 1 mm^3 of tumor volume. […] Treatment began on Day 0 with established subcutaneous TMD8 tumors with a mean tumor volume (MTV) of 107-108 mm^3.
All agents were administered to mice bearing TMD8 tumors on day 0 and dosed PO daily until individual tumor volumes reached or exceeded 1500 mm^3, at which point dosing stopped and the individual mouse was removed from the study. Compound 1 was dosed at 50 μg/kg and was formulated in PEG400 (30% v/v)+70% v/v HPMC (1% w/v) in citrate buffer (pH 5). Ibrutinib was dosed at 12.5 mg/kg and formulated in 0.5% MC+0.4% cremophor EL+0.1% sodium lauryl sulfate. Compound 1 was also dosed in combination with Ibrutinib at their respective single agent doses. Body weight and MTV was measured on a 2× weekly schedule and the study end point was when all mice were removed from the study on day 54. Statistical analysis was performed using survival analysis and the Logrank test (Mantel-Cox test). Data are expressed as MTV±SEM.

[6] = tested on: r/r subjects with MCL; conditions: r/r MCL following bortezomib; cited from earlier work

| Structure (SMILES) | GI50 [1] [nM] | further results |
| --- | --- | --- |
| O=C1CC[C@H](N2C(=O)c3cccc4c(Cc5ccc(CN6CCC7(CCCO7)CC6)cc5)ccc2c34)C(=O)N1 (single isomer, unassigned) [Compound 12] | 0.0107 |  |
| CC1(CN2CCC(n3cc(Cc4ccc5c6c(cccc46)C(=O)N5C4CCC(=O)NC4=O)cn3)CC2)CCC1 (centres unmarked) [Compound 2, 3-(6-((1-(1-((1-methylcyclobutyl)methyl)piperidin-4-yl)-1H-pyrazol-4-yl)methyl)-2-oxobenzo[cd]indol-1(2H)-yl)piperidine-2,6-dione] | 0.00933 |  |
| O=C1CCC(N2C(=O)c3cccc4c(Cc5ccc(CN6CCN(c7ccccc7F)CC6)cc5)ccc2c34)C(=O)N1 (centres unmarked) [Compound 3, 3-(6-(4-((4-(2-fluorophenyl)piperazin-1-yl)methyl)benzyl)-2-oxobenzo[cd]indol-1(2H)-yl)piperidine-2,6-dione] | 0.0409 |  |
| N#Cc1ccc(N2CCN(Cc3ccc(Cc4ccc5c6c(cccc46)C(=O)N5C4CCC(=O)NC4=O)cc3)CC2)c(F)c1 (centres unmarked) [Compound 4, 4-(4-(4-((1-(2,6-dioxopiperidin-3-yl)-2-oxo-1,2-dihydrobenzo[cd]indol-6-yl)methyl)benzyl)piperazin-1-yl)-3-fluorobenzonitrile] | 0.0201 |  |
| O=C1CCC(N2C(=O)c3cccc4c(Cc5ccc(CN6CCOCC6)cc5)ccc2c34)C(=O)N1 (centres unmarked) [Compound 5, 3-(6-(4-(morpholinomethyl)benzyl)-2-oxobenzo[cd]indol-1(2H)-yl)piperidine-2,6-dione] | 0.0498 |  |
| CC1(C(=O)N2CCC(C)(n3cc(Cc4ccc5c6c(cccc46)C(=O)N5C4CCC(=O)NC4=O)cn3)CC2)CCC1 (centres unmarked) [Compound 6, 3-(6-((1-(4-methyl-1-(1-methylcyclobutane-1-carbonyl)piperidin-4-yl)-1H-pyrazol-4-yl)methyl)-2-oxobenzo[cd]indol-1(2H)-yl)piperidine-2,6-dione] | 0.0146 |  |
| CC1(CN2CCC(n3cc(Cc4ccc5c6c(cccc46)C(=O)N5C4CCC(=O)NC4=O)cn3)CC2)CC1 (centres unmarked) [Compound 7, 3-(6-((1-(1-((1-methylcyclopropyl)methyl)piperidin-4-yl)-1H-pyrazol-4-yl)methyl)-2-oxobenzo[cd]indol-1(2H)-yl)piperidine-2,6-dione] | 0.0159 |  |
| CC1(CN2CCC(C)(n3cc(Cc4ccc5c6c(cccc46)C(=O)N5C4CCC(=O)NC4=O)cn3)CC2)CC1 (centres unmarked) [Compound 8, 3-(6-((1-(4-methyl-1-((1-methylcyclopropyl)methyl)piperidin-4-yl)-1H-pyrazol-4-yl)methyl)-2-oxobenzo[cd]indol-1(2H)-yl)piperidine-2,6-dione] | 0.138 |  |
| CC(C)(C)CN1CCC(n2cc(Cc3ccc4c5c(cccc35)C(=O)N4C3CCC(=O)NC3=O)cn2)CC1 (centres unmarked) [Compound 9, 3-(6-((1-(1-neopentylpiperidin-4-yl)-1H-pyrazol-4-yl)methyl)-2-oxobenzo[cd]indol-1(2H)-yl)piperidine-2,6-dione] | 0.0297 |  |
| CC(C)(C)CN1CCC(C)(n2cc(Cc3ccc4c5c(cccc35)C(=O)N4C3CCC(=O)NC3=O)cn2)CC1 (centres unmarked) [Compound 10, 3-(6-((1-(4-methyl-1-neopentylpiperidin-4-yl)-1H-pyrazol-4-yl)methyl)-2-oxobenzo[cd]indol-1(2H)-yl)piperidine-2,6-dione] | 0.0621 |  |
| CC(C)(C)C(=O)N1CCC(C)(n2cc(Cc3ccc4c5c(cccc35)C(=O)N4C3CCC(=O)NC3=O)cn2)CC1 (centres unmarked) [Compound 11, 3-(6-((1-(4-methyl-1-pivaloylpiperidin-4-yl)-1H-pyrazol-4-yl)methyl)-2-oxobenzo[cd]indol-1(2H)-yl)piperidine-2,6-dione] | 0.0272 |  |
| O=C1CCC(N2C(=O)c3cccc4c(Cc5cnn(C6CCN(CC7(F)CC7)CC6)c5)ccc2c34)C(=O)N1 (centres unmarked) [Compound 13, 3-(6-((1-(1-((1-fluorocyclopropyl)methyl)piperidin-4-yl)-1H-pyrazol-4-yl)methyl)-2-oxobenzo[cd]indol-1(2H)-yl)piperidine-2,6-dione] | 0.155 |  |
| O=C1CC[C@@H](N2C(=O)c3cccc4c(Cc5ccc(CN6CCOCC6)cc5)ccc2c34)C(=O)N1 [Compound 14] |  | Cmax [2]: 5 ng/mL; AUC(0-inf) ([3]; dose normalized to 1 mg/kg): 47 ng·h/mL; Cmax ([3]; dose normalized to 1 mg/kg): 6 ng/mL; half-life ([3]; read-out: T ½ (converted)): 2.7 h |
| C[C@@H]1C[C@H]2[C@@H]3CCC4=CC(=O)C=C[C@]4(C)[C@@]3(F)[C@@H](O)C[C@]2(C)[C@@]1(O)C(=O)CO [Dexamethasone, reference compound] |  | Median Survival [4]: 30 |
| C=CC(=O)N1CCC[C@@H](n2nc(-c3ccc(Oc4ccccc4)cc3)c3c(N)ncnc32)C1 [Ibrutinib, 1-[(3R)-3-[4-amino-3-(4-phenoxy-phenyl)pyrazolo[3,4-d]pyrimidin-1-yl]piperidin-1-yl]prop-2-en-1-one, reference compound] |  | Median Survival [5]: 28 |
| Nc1cccc2c1CN(C1CCC(=O)NC1=O)C2=O (centres unmarked) [lenalidomide] |  | median duration of response [DOR] [6]: 16.6 months; overall response rate [ORR] [6]: 28% |

Source: patent US20230190760A1, “ADVANTAGEOUS THERAPIES FOR DISORDERS MEDIATED BY IKAROS OR AIOLOS” (C4 Therapeutics, Inc., priority 2020, published 2023)
